Our source for the melting point values is patent US6348460B1 (priority 1997, dated 2002).

The structures appear in SMILES notation.

With `Cc1ccc(N(SN2CCOCC2)C(=O)c2snnc2C)cc1` [b183, 4-methyl-N-(4-methylphenyl)-N-morpholinothio-1,2,3-thiadiazole-5-carboxamide], the melting point is 60 °C (dec.).

`Cc1nnsc1C(=O)NS(C)(=O)=O` gave a melting point of 165 °C.

The term melting point denotes the temperature of the solid-liquid transition.
